The target in this assay is HPK1 (Homo sapiens (Human), UniProt Q92918). The experiment in a line: HPK1 Kinase Binding Assay. The essentials:
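Active HPK1 (added as 4 nM solution) was combined with compound (3-fold, 11-point series) and tracer 222 (18 nM) plus Eu-anti-GST antibody (4 nM) in 50 mM HEPES pH 7.5 with MgCl2 and DTT. After 1 h at 25 °C plates were read. Ki values were derived.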

Ki data for 13 molecules are collected here from patent US10435405B2, “Pyrazolopyridine compounds and uses thereof” (Incyte Corporation, priority 2016, dated 2019).

Sequence of HPK1 (Q92918 1-346): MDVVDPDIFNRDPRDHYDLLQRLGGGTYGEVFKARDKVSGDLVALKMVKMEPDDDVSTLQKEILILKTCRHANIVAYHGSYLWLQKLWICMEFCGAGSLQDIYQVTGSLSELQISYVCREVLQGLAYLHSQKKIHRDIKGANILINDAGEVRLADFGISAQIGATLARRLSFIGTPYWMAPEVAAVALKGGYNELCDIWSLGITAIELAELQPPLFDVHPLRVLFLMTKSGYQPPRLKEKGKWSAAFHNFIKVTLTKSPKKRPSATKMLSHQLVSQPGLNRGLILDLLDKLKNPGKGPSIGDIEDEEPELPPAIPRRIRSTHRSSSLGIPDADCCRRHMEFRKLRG

By Ki is commonly meant a measure of affinity in units of concentration, obtained from inhibition or displacement. Low readings indicate tighter binding, high ones weaker binding. For `CNCc1cc(F)c(-c2cc3c(-c4ccc(N5CCC(O)CC5)nc4)n[nH]c3cn2)c(F)c1` [Example 166, 1-(5-(5-(2,6-Difluoro-4-((methylamino)methyl)phenyl)-1H-pyrazolo[3,4-c]pyridin-3-yl)pyridin-2-yl)piperidin-4-ol], the Ki is ≤ 0.1 µM.
To `CN1CCN(c2ncc(-c3n[nH]c4cnc(-c5c(F)cc(CC#N)cc5F)cc34)cn2)CC1` [Example 211, 2-(3,5-Difluoro-4-(3-(2-(4-methylpiperazin-1-yl)pyrimidin-5-yl)-1H-pyrazolo[3,4-c]pyridin-5-yl)phenyl)acetonitrile] belongs ≤ 0.1 µM.
In the case of `CN1CCN(c2ccc(C(=O)Nc3n[nH]c4cnc(-c5c(F)cc(CN6CCC6)cc5F)cc34)cc2)CC1` [Example 142, N-(5-(4-(Azetidin-1-ylmethyl)-2,6-difluorophenyl)-1H-pyrazolo[3,4-c]pyridin-3-yl)-4-(4-methylpiperazin-1-yl)benzamide] it was ≤ 0.1 µM; in that of `Cc1cc(C2CCCN2)cc(F)c1-c1cc2c(-c3cnn(C)c3)n[nH]c2cn1` (single isomer, unassigned) [Example 171, 5-(2-Fluoro-6-methyl-4-(pyrrolidin-2-yl)phenyl)-3-(1-methyl-1H-pyrazol-4-yl)-1H-pyrazolo[3,4-c]pyridine], ≤ 0.1 µM; in that of `CNc1ccc(F)c(-c2cc3c(-c4cnn(C)c4)n[nH]c3cn2)c1F` [Example 61, 2,4-Difluoro-N-methyl-3-(3-(1-methyl-1H-pyrazol-4-yl)-1H-pyrazolo[3,4-c]pyridin-5-yl)aniline], ≤ 0.1 µM.
In the case of `Cn1cc(-c2n[nH]c3cnc(-c4c(F)cc(NC(=O)Cc5cccnc5)cc4F)cc23)cn1` [Example 67, N-(3,5-Difluoro-4-(3-(1-methyl-1H-pyrazol-4-yl)-1H-pyrazolo[3,4-c]pyridin-5-yl)phenyl)-2-(pyridin-3-yl)acetamide] it was ≤ 0.1 µM.
On to `CNCc1cc(F)c(-c2cc3c(-c4cnn(C)c4)n[nH]c3cn2)c(F)c1` [Example 122, 1-(3,5-Difluoro-4-(3-(1-methyl-1H-pyrazol-4-yl)-1H-pyrazolo[3,4-c]pyridin-5-yl)phenyl)-N-methylmethanamine], for which the inhibitory constant (Ki) was ≤ 0.1 µM.
For the molecule `Cc1cc(CNCC(C)(C)O)cc(F)c1-c1cc2c(-c3cnn(C)c3)n[nH]c2cn1` [Example 184, 1-(3-Fluoro-5-methyl-4-(3-(1-methyl-1H-pyrazol-4-yl)-1H-pyrazolo[3,4-c]pyridin-5-yl)benzylamino)-2-methylpropan-2-ol], the Ki is ≤ 0.1 µM.
In the case of `CN(C)c1cc(F)c(-c2cc3c(-c4cnn(C)c4)n[nH]c3cn2)c(F)c1` [Example 63, 3,5-Difluoro-N,N-dimethyl-4-(3-(1-methyl-1H-pyrazol-4-yl)-1H-pyrazolo[3,4-c]pyridin-5-yl)aniline], the Ki was ≤ 0.1 µM.
Take `CNC1CCc2cc(F)c(-c3cc4c(-c5cnn(C)c5)n[nH]c4cn3)c(F)c2C1` (stereo not shown) [Example 200, 6,8-Difluoro-N-methyl-7-(3-(1-methyl-1H-pyrazol-4-yl)-1H-pyrazolo[3,4-c]pyridin-5-yl)-1,2,3,4-tetrahydronaphthalen-2-amine]: the Ki is ≤ 0.1 µM.
Consider `Cc1c(CNC2CC(C)(C)C2)ccc(F)c1-c1cc2c(-c3cnn(C)c3)n[nH]c2cn1` [Example 223, N-(4-Fluoro-2-methyl-3-(3-(1-methyl-1H-pyrazol-4-yl)-1H-pyrazolo[3,4-c]pyridin-5-yl)benzyl)-3,3-dimethylcyclobutanamine], for which the Ki was ≤ 0.1 µM.
In the case of `Cc1cc(CN2CCC2)cc(F)c1-c1cc2c(-c3cnn(C)c3)n[nH]c2cn1` [Example 182, 5-(4-(Azetidin-1-ylmethyl)-2-fluoro-6-methylphenyl)-3-(1-methyl-1H-pyrazol-4-yl)-1H-pyrazolo[3,4-c]pyridine] it was ≤ 0.1 µM; in that of `COc1cccc(F)c1-c1cc2c(N3CCN(c4ccncc4)CC3)n[nH]c2cn1` [Example 40, 5-(2-Fluoro-6-methoxyphenyl)-3-(4-(pyridin-4-yl)piperazin-1-yl)-1H-pyrazolo[3,4-c]pyridine], ≤ 0.1 µM.
